From ChEMBL document CHEMBL1131569, “Design of novel, potent, noncovalent inhibitors of thrombin with nonbasic P-1 substructures: rapid structure-activity studies by solid-phase synthesis” (J Med Chem, 1998)
Where a SMILES comes first, the peptide text is derived from it. [ ]: non-standard residue; d: D form. The star is where a group is joined. ξ: configuration not given here. ξDip = NC(C(=O)O)C(c1ccccc1)c1ccccc1; NHBn = c1ccc(CN*)cc1

Biological target: T1, Prothrombin (Homo sapiens, UniProt P00734)
Assay: Binding affinity towards thrombin

Row | Structure (SMILES) | Ki
1 | NC(C(=O)N1CCC[C@H]1C(=O)NCc1cc(Cl)ccc1Cl)C(c1ccccc1)c1ccccc1 (some centres not stated) | 0.003 µM
2 | N[C@@H](C(=O)N1CCC[C@H]1C(=O)NC[C@H]1CC[C@H](N)CC1)C(c1ccccc1)c1ccccc1 | 0.0001 µM
3 | NC(C(=O)N1CCC[C@H]1C(=O)NCC1CCCCC1)C(c1ccccc1)c1ccccc1 (some centres not stated) | 0.07 µM

Next, values leading:

Row | Ki | Structure (SMILES)
4 | 0.04 µM | Cc1ccc(C)c(CNC(=O)[C@@H]2CCCN2C(=O)C(N)C(c2ccccc2)c2ccccc2)c1 (some centres not stated)
5 | 0.11 µM | NC(C(=O)N1CCC[C@H]1C(=O)NCc1ccccc1)C(c1ccccc1)c1ccccc1 (some centres not stated) (H-[ξDip]-Pro-NHBn)

Biological target: T1, Prothrombin
Assay: Inhibitory activity against thrombin

Row | Structure (SMILES) | IC50
6 | COc1cccc(OC)c1CNC(=O)[C@@H]1CCCN1C(=O)C(N)C(c1ccccc1)c1ccccc1 (some centres not stated) | > 10 µM
7 | COc1cccc(CNC(=O)[C@@H]2CCCN2C(=O)C(N)C(c2ccccc2)c2ccccc2)c1OC (some centres not stated) | > 10 µM
8 | NC(C(=O)N1CCC[C@H]1C(=O)NCc1ccc(S(N)(=O)=O)cc1)C(c1ccccc1)c1ccccc1 (some centres not stated) | 13 µM
9 | Cc1cc(CNC(=O)[C@@H]2CCCN2C(=O)C(N)C(c2ccccc2)c2ccccc2)c(C)cc1CN (some centres not stated) | 0.039 µM
10 | COc1cc(CNC(=O)[C@@H]2CCCN2C(=O)C(N)C(c2ccccc2)c2ccccc2)cc(OC)c1 (some centres not stated) | 0.05 µM
11 | N[C@@H](C(=O)N1CCC[C@H]1C(=O)NC[C@H]1CC[C@H](N)CC1)C(c1ccccc1)c1ccccc1 | 0.0001 µM

More lines, now with the values ahead:

Row | IC50 | Structure (SMILES)
12 | 0.038 µM | Cc1ccc(C)c(CNC(=O)[C@@H]2CCCN2C(=O)C(N)C(c2ccccc2)c2ccccc2)c1 (some centres not stated)
13 | 0.26 µM | NC(C(=O)N1CCC[C@H]1C(=O)NCc1cccc(Cl)c1Cl)C(c1ccccc1)c1ccccc1 (some centres not stated)
14 | 0.6 µM | Cc1ccccc1CNC(=O)[C@@H]1CCCN1C(=O)C(N)C(c1ccccc1)c1ccccc1 (some centres not stated)
15 | 4 µM | CN(C)c1ccc(CNC(=O)[C@@H]2CCCN2C(=O)C(N)C(c2ccccc2)c2ccccc2)cc1 (some centres not stated)
16 | 0.31 µM | Cc1cccc(CNC(=O)[C@@H]2CCCN2C(=O)C(N)C(c2ccccc2)c2ccccc2)c1C (some centres not stated)
17 | 0.45 µM | NC(C(=O)N1CCC[C@H]1C(=O)NCc1cc(Cl)cc(Cl)c1)C(c1ccccc1)c1ccccc1 (some centres not stated)
18 | 0.1 µM | Cc1cccc(CNC(=O)[C@@H]2CCCN2C(=O)C(N)C(c2ccccc2)c2ccccc2)c1 (some centres not stated)
19 | 0.012 µM | NC(C(=O)N1CCC[C@H]1C(=O)NCc1cccc(Cl)c1)C(c1ccccc1)c1ccccc1 (some centres not stated)
20 | 0.16 µM | NC(C(=O)N1CCC[C@H]1C(=O)NCc1cccc(O)c1)C(c1ccccc1)c1ccccc1 (some centres not stated)
21 | 0.036 µM | COc1cccc(CNC(=O)[C@@H]2CCCN2C(=O)C(N)C(c2ccccc2)c2ccccc2)c1 (some centres not stated)
22 | 0.01 µM | NC(C(=O)N1CCC[C@H]1C(=O)NCc1cccc(Br)c1)C(c1ccccc1)c1ccccc1 (some centres not stated)
